Usually LD50 stands for the dose expected to kill half of the subjects tested.

Results on 2 compounds are retold here after patent US20060234955A1, “Cardiac glycosides to treat cystic fibrosis and other il-8 dependent disorders” (priority 2002, published 2006).

Series [1] deals with IL-8 from CFTE cells. The experiment in a line: Hypersecretion of IL-8 from CFTE cells. The settings on record: qualitative.
Series [2] in a line: Solubility in ethanol.
Series [3] concerns cat. The experiment in a line: LD50, intravenous administration to the cat (Merck Index).
The test system of series [4] is cat. The settings on record: intravenous administration, Merck Index; cited from earlier work.
Series [5] deals with NFκB. The note with it: 1 μM concentration; variety of cultured cancer cells; cited from earlier work.

On to `CCCn1c(=O)c2[nH]c(C3CCCC3)nc2n(CCC)c1=O` [CPX, 1,3-Dipropyl-8-Cyclopentyl xanthine], for which the “hypersecretion of IL-8 from CFTE cells” value in series [1] is “suppressed”.

Turning to `CO[C@H]1C[C@H](O[C@H]2CC[C@@]3(C)[C@H](CC[C@@H]4[C@@H]3CC[C@]3(C)[C@@H](C5=CC(=O)OC5)[C@@H](OC(C)=O)C[C@]43O)C2)O[C@@H](C)[C@@H]1O` [Compound I], the solubility entry in series [2] is “soluble in ethanol”. Moreover, the “LD-50-defined toxicity (concentration)” value in series [3] (as restated) is at least 0.6 µM. In addition, the “concentration corresponding to LD50” value in series [3] (assuming body weight is all water and uniform distribution) is 600 nM. In series [4], the LD50 is recorded as 0.3 mg/kg. Also, the “TNFα-dependent activation of NFκB” value in series [5] is reported as “suppresses”.
